Drawing on ChEMBL document CHEMBL1909046, “DrugMatrix in vitro pharmacology data”, this text covers IC50 and Ki for 18 compounds.

Data set [1] concerns the target Beta-3 adrenergic receptor (Homo sapiens, UniProt P13945). Nature of the data set: DRUGMATRIX: Adrenergic beta3 radioligand binding (ligand: [125I] Cyanopindolol). The class given is cell membranes, HEK293, Membrane. To be noted: Not Active = under 50% inhibition at 10 µM.
The target in data set [2] is T1, C-X-C chemokine receptor type 2 (Homo sapiens, UniProt P25025). Note: in other assays of this panel Not Active means under 50% inhibition at 10 µM.
T1 sequence (P25025 whole entry): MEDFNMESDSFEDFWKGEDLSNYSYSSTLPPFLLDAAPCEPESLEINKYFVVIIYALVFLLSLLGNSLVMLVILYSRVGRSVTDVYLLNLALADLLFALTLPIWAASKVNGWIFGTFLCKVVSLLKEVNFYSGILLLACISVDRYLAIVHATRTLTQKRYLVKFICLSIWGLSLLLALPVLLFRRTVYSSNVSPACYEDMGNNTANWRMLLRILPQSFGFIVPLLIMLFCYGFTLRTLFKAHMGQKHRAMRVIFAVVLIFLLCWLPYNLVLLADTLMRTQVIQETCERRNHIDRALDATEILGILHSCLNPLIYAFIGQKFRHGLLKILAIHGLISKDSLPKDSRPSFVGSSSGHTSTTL
In kind it is cell membranes, CHO-K1, Membrane. The settings on record: cho-k1.

Data set [3] concerns the target T2, D(4) dopamine receptor (Homo sapiens, UniProt P21917).
T2 sequence (P21917 whole entry): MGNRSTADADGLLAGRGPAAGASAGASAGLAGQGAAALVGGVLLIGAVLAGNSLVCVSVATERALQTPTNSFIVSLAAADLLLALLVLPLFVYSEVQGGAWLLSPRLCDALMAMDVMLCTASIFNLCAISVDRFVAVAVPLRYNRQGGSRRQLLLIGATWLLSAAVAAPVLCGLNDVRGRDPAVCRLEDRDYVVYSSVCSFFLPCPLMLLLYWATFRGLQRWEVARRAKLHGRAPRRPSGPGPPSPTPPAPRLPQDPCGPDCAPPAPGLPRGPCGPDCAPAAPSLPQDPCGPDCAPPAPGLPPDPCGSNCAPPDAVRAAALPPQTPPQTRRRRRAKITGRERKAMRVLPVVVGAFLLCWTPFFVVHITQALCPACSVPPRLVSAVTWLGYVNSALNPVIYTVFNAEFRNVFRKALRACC
Kind of data set: DRUGMATRIX: Dopamine D4.2 radioligand binding (ligand: [3H] Spiperone). In kind it is cell membranes, CHO-K1, Membrane. To be noted: cho-k1; Not Active = under 50% inhibition at 10 µM.

Data set [4] has as its target T3, Progesterone receptor (Bos taurus, UniProt Q690N0).
T3 sequence (Q690N0 whole entry): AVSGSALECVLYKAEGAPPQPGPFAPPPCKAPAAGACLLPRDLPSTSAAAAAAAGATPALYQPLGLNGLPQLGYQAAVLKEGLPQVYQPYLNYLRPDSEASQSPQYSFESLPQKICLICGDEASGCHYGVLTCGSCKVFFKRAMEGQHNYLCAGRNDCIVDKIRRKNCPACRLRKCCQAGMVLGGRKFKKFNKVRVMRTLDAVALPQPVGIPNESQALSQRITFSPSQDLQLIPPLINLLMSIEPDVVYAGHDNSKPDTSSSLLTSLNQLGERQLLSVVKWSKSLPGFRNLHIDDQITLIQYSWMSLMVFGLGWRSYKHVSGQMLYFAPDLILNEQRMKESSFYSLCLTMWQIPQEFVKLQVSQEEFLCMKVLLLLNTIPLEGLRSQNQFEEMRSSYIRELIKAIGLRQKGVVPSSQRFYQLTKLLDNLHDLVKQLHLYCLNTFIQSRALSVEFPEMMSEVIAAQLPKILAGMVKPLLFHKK
Kind of data set: DRUGMATRIX: Progesterone radioligand binding (ligand: [3H] R-5020). In kind it is tissue-based, Uterus. To be noted: Not Active = under 50% inhibition at 10 µM.

The target in data set [5] is Tyrosine-protein kinase Fyn (Homo sapiens, UniProt P06241). Kind of data set: biochemical. In kind it is cell-based, Insect cells. To be noted: insect cells.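 Note: enzymatic inhibition of Fyn kinase activity measured with Poly(Glu:Tyr) as the phosphorylation substrate; in other assays of this panel Not Active means under 50% inhibition at 10 µM.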
Data set [6] has as its target Receptor tyrosine-protein kinase erbB-2 (Homo sapiens, UniProt P04626). In kind it is cell-based. The settings on record: insect cells.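 Note: inhibition of HER2 kinase enzyme activity, measured with Poly(Glu:Tyr) as the phosphorylation substrate; in other assays of this panel Not Active means under 50% inhibition at 10 µM.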
In data set [7] the target is Cytochrome P450 2E1 (Homo sapiens, UniProt P05181). To be noted: bti-tn-5b1-4. Note: in other assays of this panel Not Active means under 50% inhibition at 10 µM.
Sequence of Cytochrome P450 2E1 (P05181 whole entry): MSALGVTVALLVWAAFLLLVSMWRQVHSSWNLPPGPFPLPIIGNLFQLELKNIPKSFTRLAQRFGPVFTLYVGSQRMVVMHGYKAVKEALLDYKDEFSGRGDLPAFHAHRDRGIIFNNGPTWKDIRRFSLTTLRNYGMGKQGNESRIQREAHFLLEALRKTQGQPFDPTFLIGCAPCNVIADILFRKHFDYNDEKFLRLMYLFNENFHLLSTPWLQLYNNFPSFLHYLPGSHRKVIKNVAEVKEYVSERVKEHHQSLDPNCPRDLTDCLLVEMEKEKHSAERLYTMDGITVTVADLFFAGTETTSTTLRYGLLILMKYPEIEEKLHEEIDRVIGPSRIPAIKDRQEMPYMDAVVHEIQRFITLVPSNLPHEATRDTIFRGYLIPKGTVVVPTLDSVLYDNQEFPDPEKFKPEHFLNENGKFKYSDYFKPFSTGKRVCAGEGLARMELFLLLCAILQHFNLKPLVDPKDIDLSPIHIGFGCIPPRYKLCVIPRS

Sequence of Tyrosine-protein kinase Fyn (P06241 whole entry): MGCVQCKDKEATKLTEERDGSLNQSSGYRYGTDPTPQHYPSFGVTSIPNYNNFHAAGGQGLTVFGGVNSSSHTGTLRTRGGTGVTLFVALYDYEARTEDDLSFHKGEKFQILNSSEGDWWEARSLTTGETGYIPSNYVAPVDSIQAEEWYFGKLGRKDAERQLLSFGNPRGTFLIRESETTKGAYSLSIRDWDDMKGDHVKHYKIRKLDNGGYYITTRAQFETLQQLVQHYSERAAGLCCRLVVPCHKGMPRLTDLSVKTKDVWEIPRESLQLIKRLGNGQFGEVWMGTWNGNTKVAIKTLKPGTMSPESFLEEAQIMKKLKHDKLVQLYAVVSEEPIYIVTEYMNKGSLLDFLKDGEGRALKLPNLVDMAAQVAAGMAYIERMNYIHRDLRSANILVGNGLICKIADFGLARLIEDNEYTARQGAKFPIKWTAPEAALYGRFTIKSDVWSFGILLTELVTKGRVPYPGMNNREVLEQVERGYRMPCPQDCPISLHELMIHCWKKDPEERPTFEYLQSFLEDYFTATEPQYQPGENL
Sequence of Beta-3 adrenergic receptor (P13945 whole entry): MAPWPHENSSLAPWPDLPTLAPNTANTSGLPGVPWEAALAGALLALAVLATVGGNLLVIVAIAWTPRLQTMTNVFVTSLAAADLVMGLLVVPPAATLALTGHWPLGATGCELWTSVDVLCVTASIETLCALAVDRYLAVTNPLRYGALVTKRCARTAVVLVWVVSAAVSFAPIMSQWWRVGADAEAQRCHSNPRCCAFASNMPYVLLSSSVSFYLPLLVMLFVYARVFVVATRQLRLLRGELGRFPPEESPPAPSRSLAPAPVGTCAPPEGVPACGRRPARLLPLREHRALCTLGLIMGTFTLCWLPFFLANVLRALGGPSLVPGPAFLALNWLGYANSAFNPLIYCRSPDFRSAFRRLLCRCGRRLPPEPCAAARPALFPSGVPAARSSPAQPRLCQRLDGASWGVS

Consider `Nc1ccc(Cc2ccc(N)cc2)cc1`, for which the half-inhibitory concentration (IC50) result in data set [1] (hek293), in data set [2], in data set [3], in data set [4], in data set [5] and in data set [6] was “Not Active” in each case. Besides, the IC50 result in data set [7] is listed as “Not Active”. Also, in data set [7], the Ki entry was “Not Active”.
On to `CC[C@H]1OC(=O)[C@H](C)[C@@H](O[C@H]2C[C@@](C)(OC)[C@@H](O)[C@H](C)O2)[C@H](C)[C@@H](O[C@@H]2O[C@H](C)C[C@H](N(C)C)[C@H]2O)[C@](C)(O)C[C@@H](C)C(=O)[C@H](C)[C@@H](O)[C@]1(C)O` [ERYTHROMYCIN], for which the IC50 entry in data set [1] (hek293), in data set [2], in data set [3], in data set [4], in data set [5] and in data set [6] was “Not Active” throughout. In data set [7], the IC50 entry is given as “Not Active”. Also, the Ki entry in data set [7] was “Not Active”.
Turning to `C[N+](C)(C)CCOP(=O)([O-])OC[C@H](O)CO`, the IC50 entry in data set [1] (hek293), in data set [2], in data set [3], in data set [4], in data set [5] and in data set [6] was “Not Active” in each case. Besides, the IC50 result in data set [7] is reported as “Not Active”. Further, the Ki entry in data set [7] was “Not Active”.
`Clc1cc(Cl)c(OCC#CI)cc1Cl` [HALOPROGIN]: the IC50 entry in data set [1] (hek293), in data set [2], in data set [3], in data set [4], in data set [5] and in data set [6] was “Not Active” throughout. Further, the IC50 result in data set [7] is “Not Active”. In addition, the Ki entry in data set [7] is recorded as “Not Active”.
Take `Cc1cc(C(C)(C)C)c(O)c(C)c1CC1=NCCN1` [OXYMETAZOLINE]: the IC50 entry in data set [1] (hek293), in data set [2], in data set [3], in data set [4], in data set [5] and in data set [6] was “Not Active” in each case. The IC50 entry in data set [7] is reported as “Not Active”. Besides, the Ki entry in data set [7] was “Not Active”.
As to `C[N+](C)(C)CCOC(N)=O.[Cl-]` [CARBACHOL], the IC50 entry in data set [1] (hek293), in data set [2], in data set [4], in data set [5], in data set [6] and in data set [7] was “Not Active” throughout. The Ki result in data set [3] and in data set [7] was “Not Active” in each case.
Consider `CCN(CCO)CCCC(C)Nc1ccnc2cc(Cl)ccc12` (configuration not stated) [HYDROXYCHLOROQUINE], for which the IC50 entry in data set [1] (hek293), in data set [2], in data set [3], in data set [4], in data set [5] and in data set [6] was “Not Active” each time. Besides, the IC50 result in data set [7] is reported as “Not Active”. Also, the Ki result in data set [7] is “Not Active”.
For `O=C1c2ccccc2C(=O)C1c1ccccc1` [PHENINDIONE], the IC50 result in data set [1] (hek293), in data set [2], in data set [3], in data set [4], in data set [5] and in data set [6] was “Not Active” each time. Further, the IC50 result in data set [7] was “Not Active”. The Ki entry in data set [7] is “Not Active”.
With `NC(N)=Nc1nc(CSCCC(N)=NS(N)(=O)=O)cs1` [FAMOTIDINE], the IC50 result in data set [1] (hek293), in data set [2], in data set [3], in data set [4], in data set [5] and in data set [6] was “Not Active” throughout. Moreover, in data set [7], the IC50 result is reported as “Not Active”. For the same compound, the Ki entry in data set [7] is reported as “Not Active”.
On to `Cc1ccnc2c1NC(=O)c1cccnc1N2C1CC1` [NEVIRAPINE], for which the IC50 entry in data set [1] (hek293), in data set [2], in data set [3], in data set [4], in data set [5] and in data set [6] was “Not Active” throughout. Besides, in data set [7], the IC50 entry is “Not Active”. For the same compound, the Ki result in data set [7] is “Not Active”.
Consider `CO[C@H]1O[C@@H]2O[C@@]3(C)CC[C@H]4[C@H](C)CC[C@@H]([C@H]1C)[C@@]24OO3`, for which the IC50 entry in data set [1] (hek293), in data set [2], in data set [3], in data set [4], in data set [5] and in data set [6] was “Not Active” throughout. Also, the IC50 entry in data set [7] is “Not Active”. Moreover, the Ki entry in data set [7] is recorded as “Not Active”.
`CN(CCOc1ccc(C[C@H](Nc2ccccc2C(=O)c2ccccc2)C(=O)O)cc1)c1ccccn1`: the IC50 in data set [1] (read-out: IC50) is 22.1 µM; in data set [2] it was “Not Active”; in data set [3], “Not Active”; in data set [4] (read-out: IC50) it was 30.6 µM; in data set [5] it was “Not Active”; in data set [6] it was “Not Active”. The IC50 result in data set [7] is recorded as “Not Active”. Moreover, the Ki in data set [1] (read-out: Ki) was 16.6 µM; in data set [4] (read-out: Ki) it was 3.99 µM; in data set [7], “Not Active”.
Turning to `c1ccc2sc(SSc3nc4ccccc4s3)nc2c1` [BENZOTHIAZYL DISULFIDE], the IC50 entry in data set [1] (hek293), in data set [2], in data set [3], in data set [4], in data set [5] and in data set [6] was “Not Active” throughout. Also, the IC50 result in data set [7] was “Not Active”. In addition, the Ki result in data set [7] is listed as “Not Active”.
`NS(=O)(=O)c1cc(C(=O)O)c(NCc2ccco2)cc1Cl` [FUROSEMIDE]: the IC50 result in data set [1] (hek293), in data set [2], in data set [3], in data set [4], in data set [5] and in data set [6] was “Not Active” throughout. In addition, the IC50 entry in data set [7] was “Not Active”. In addition, in data set [7], the Ki result is “Not Active”.
Turning to `COc1ccc(C[C@H](N)C(=O)N[C@H]2[C@@H](O)[C@H](n3cnc4c(N(C)C)ncnc43)O[C@@H]2CO)cc1` [PUROMYCIN], the IC50 entry in data set [1] (hek293), in data set [2], in data set [3], in data set [4], in data set [5] and in data set [6] was “Not Active” throughout. In addition, in data set [7], the IC50 result is reported as “Not Active”. For the same compound, the Ki entry in data set [7] is recorded as “Not Active”.
Regarding `O=c1[nH]c2ccccc2c2ccccc12`, the IC50 entry in data set [1] (hek293), in data set [2], in data set [3], in data set [4], in data set [5] and in data set [6] was “Not Active” each time. Besides, the IC50 entry in data set [7] is listed as “Not Active”. In addition, the Ki result in data set [7] is reported as “Not Active”.
Turning to COPPER(II) OXIDE, the IC50 result in data set [1] (hek293), in data set [2], in data set [3], in data set [4], in data set [5] and in data set [6] was “Not Active” throughout. Further, the IC50 entry in data set [7] is on record as “Not Active”. For the same compound, the Ki entry in data set [1] (hek293), in data set [2], in data set [3], in data set [4], in data set [5] and in data set [6] was “Not Active” throughout. The Ki entry in data set [7] is listed as “Not Active”.
On to `CC12CCC(CC1)C(C)(C)O2` [EUCALYPTOL], for which the IC50 result in data set [1] (hek293), in data set [2], in data set [3], in data set [4], in data set [5] and in data set [6] was “Not Active” throughout. Also, in data set [7], the IC50 result is “Not Active”. Besides, in data set [7], the inhibition constant (Ki) result is listed as “Not Active”.
